Values quoted from earlier work as cited in patent US20060106070A1, “Novel pyridine-based metal chelators as antiviral agents” (Bioflexis, LLC, priority 2004, published 2006).

Assays:
[1] = target: T1, HIV-1 integrase (Human immunodeficiency virus type 1 group M subtype B, UniProt P12497); settings: result in words
T1 construct: HIV-1 recombinant IN (HIV-1NL 4-3 Integrase); purchased NIH AIDS Reagent program 2959

[2] = target: T1, HIV-1 integrase; settings: result in words; remark: listed apart in the source

| SMILES | inhibition of strand transfer reaction [1] | inhibition of 3′ processing [2] |
| --- | --- | --- |
| O=C(O)C(=O)CC(=O)c1cc(OCc2ccccc2)cc(OCc2ccccc2)c1 [L-708, 906] | inhibit strand transfer reaction | do not inhibit 3′ processing |
| O=C(O)C(=O)CC(=O)c1cccn1Cc1ccc(F)cc1 [L-731,988] | inhibit strand transfer reaction | do not inhibit 3′ processing |
